Test system: old rats
Experiment: Effect on sleep patterns (EEG pattern) in old rats
Type: in vivo
Details: single dose
Description: In these animals the EEG patterns are disturbed. Administration of an effective amount of a CCK-B antagonist to such an animal alters the EEG pattern towards the normal. These effects may be observed using standard procedures such as those described by H.Depoortere et al. Physiology & Behaviour 1993, 54, 785-793.
The ability of CCK-B antagonists to effect sleep patterns in old rats was measured by examining the effect of the compound on the EEG pattern using the procedures described by H Depoortere et al. Physiology & Behaviour 1993 54, 785-793.

Row | Structure (SMILES) | Dose that resulted in a significant improvement in total sleep time pattern (ip) [µg/kg] | Dose that resulted in a significant improvement in total sleep time pattern (ip and po) [µg/kg]
1 | CC(CNCC(NC(=O)CCC(=O)O)c1ccccc1)(Cc1c[nH]c2ccccc12)NC(=O)OC1C2CC3CC(C2)CC1C3.CNCC(O)C(O)C(O)C(O)CO (stereo not drawn) [Compound 4, (R-(R*, R*))4-((2-((3-(1H-indol-3-yl)-2-methyl-2-((tricyclo(3,3,1,1,3,7)dec-2yloxy)carbonyl)aminopropyl)amino)-1-phenylethyl)amino-4-oxo-butanoic acid meglumine salt] | 5 | 
2 | CN(C)CCN1C(=O)C(NC(=O)Nc2ccccc2)C(=O)N(CC23CC4CC(CC(C4)C2)C3)c2ccccc21 (stereo not drawn) [Compound 6] | 0.5 | 
3 | O=C(Nc1ccccc1)NC1C(=O)N(CCN2CCOCC2)c2ccccc2N(CC23CC4CC(CC(C4)C2)C3)C1=O (single isomer, unassigned; (-)) [Compound 2, (−) N-[1-(1-Adamantylmethyl)-2,4-dioxo-5-[2-(4-morpholino)ethyl]-2,3,4,5-tetrahydro-1H-benzodiazepin-3-yl]-N′-phenylurea] | 0.5 | 
4 | O=C(Nc1cccc(C(=O)O)c1)NC1C(=O)N(CC23CC4CC(CC(C4)C2)C3)c2ccccc2N(c2ccccc2)C1=O (stereo not drawn) [Compound 5, N-1[-(Adamantylmethyl)-2,4,-dioxo-5-phenyl-2,3,4,5-tetrahydro-1H-1,5-benzodiazepin-3-yl]-N′-(3-carboxyphenyl)urea] | 15 | 
5 | O=C(Nc1ccccc1)NC1C(=O)N(CC23CC4CC(CC(C4)C2)C3)c2ccccc2N(c2ccccc2)C1=O (single isomer, unassigned; (+)) [Compound 1, (+) N-phenyl-N′-[2,3,4,5-tetrahydro-2,4-dioxo-1-(1-adamantylmethyl)-5-phenyl-1H-1,5-benzodiazepin-3-yl]urea] |  | 5
6 | Cc1cccc(NC(=O)NC2N=C(c3ccccc3)c3ccccc3N(C)C2=O)c1 (stereo not drawn) [Compound 3, N-(2,3-dihydro-1-methyl-2-oxo-5-phenyl-1H-1,4-benzodiazepin-3-yl]-N′-3-methylphenyl urea] | 5 | 
